This note sets out measurements from BindingDB's records for patent US10913753 (Valo Early Discovery, 2021).

SMILES strings stand for the structures.

Test [1] deals with T1, Ubiquitin carboxyl-terminal hydrolase 25 (Homo sapiens, UniProt Q9UHP3).
T1 sequence (Q9UHP3 whole entry): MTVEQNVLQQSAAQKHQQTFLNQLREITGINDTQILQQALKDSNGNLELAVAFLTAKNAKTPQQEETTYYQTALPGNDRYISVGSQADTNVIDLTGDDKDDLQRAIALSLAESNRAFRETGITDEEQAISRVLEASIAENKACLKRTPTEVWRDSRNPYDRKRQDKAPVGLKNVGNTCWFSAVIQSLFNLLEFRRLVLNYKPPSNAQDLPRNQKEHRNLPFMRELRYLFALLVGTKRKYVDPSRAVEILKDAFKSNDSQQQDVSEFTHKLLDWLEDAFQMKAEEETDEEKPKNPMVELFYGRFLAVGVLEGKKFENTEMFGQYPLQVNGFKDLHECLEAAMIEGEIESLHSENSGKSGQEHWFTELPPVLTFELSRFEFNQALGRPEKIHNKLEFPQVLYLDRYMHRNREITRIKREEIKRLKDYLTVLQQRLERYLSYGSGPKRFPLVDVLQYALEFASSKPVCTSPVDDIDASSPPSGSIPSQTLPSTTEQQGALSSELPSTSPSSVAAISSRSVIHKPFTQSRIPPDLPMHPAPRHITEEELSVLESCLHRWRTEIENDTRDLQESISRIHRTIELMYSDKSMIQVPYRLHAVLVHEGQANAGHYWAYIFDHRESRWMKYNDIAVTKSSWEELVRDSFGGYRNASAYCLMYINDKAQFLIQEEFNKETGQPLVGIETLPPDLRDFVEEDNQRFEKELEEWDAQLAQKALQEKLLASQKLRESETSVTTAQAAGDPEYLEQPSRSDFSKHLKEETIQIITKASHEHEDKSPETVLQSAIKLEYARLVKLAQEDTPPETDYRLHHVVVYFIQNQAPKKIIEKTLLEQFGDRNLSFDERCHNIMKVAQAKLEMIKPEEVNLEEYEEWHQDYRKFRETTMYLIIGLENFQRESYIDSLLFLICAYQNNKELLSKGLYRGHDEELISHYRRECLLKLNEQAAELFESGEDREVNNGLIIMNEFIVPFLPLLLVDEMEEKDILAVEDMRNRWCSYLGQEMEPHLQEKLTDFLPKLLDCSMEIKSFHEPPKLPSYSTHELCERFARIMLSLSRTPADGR
As to the kind of experiment: Biochemical Assay. As for the experimental part: USP25: The assay was performed in a final volume of 9 uL in assay buffer containing 20 mM Tris-HCl (pH 8.0, (1M Tris-HC1, pH 8.0 solution; Corning 46-031-CM)), 3 mM BME (2-Mercaptoethanol; Sigma 63689-25ML-F), 0.03% BGG (0.22 uM filtered, Sigma, G7516-25G), and 0.01% Triton X-100 (Sigma, T9284-10L). Nanoliter quantities of 10-point, 3-fold serial dilution in DMSO was pre-dispensed into 1536 assay plates (Corning, #3724BC) for a final test concentration of 25 uM to 1.3 nM, top to lowest dose, respectively. Enzyme USP25, construct USP25-His6, (Boston Biochem E-546). Concentration and incubation times were optimized for the maximal signal-to-background while maintaining initial velocity conditions at a fixed substrate concentration. The final concentration of the enzyme in the assay was 75 pM. Final substrate (Ub -Rh110; Ubiquitin-Rhodamine 110, R&D Systems #U-555) concentration was 25 nM with [Ub -Rh110] Km. 3 uL of 2x enzyme was added to assay plates (pre-stamped with compound) preincubated with USP25 for 30 minutes and then 3 uL of 2x Ub-Rh110 was added to assay plates. Plates were incubated for 45 minutes at room temperature before addition of 3 uL of stop solution (final concentration of 10 mM citric acid (Sigma, 251275-500G)). Fluorescence was read on the Envision (Excitation at 485 nm and Emission at 535 nm; Perkin Elmer) or on the PheraSTAR (Excitation at 485 nm and Emission at 535 nm; BMG Labtech).

Test [2] has as its target T2, Ubiquitin carboxyl-terminal hydrolase 28 (Homo sapiens, UniProt Q96RU2).
T2 sequence (Q96RU2 whole entry): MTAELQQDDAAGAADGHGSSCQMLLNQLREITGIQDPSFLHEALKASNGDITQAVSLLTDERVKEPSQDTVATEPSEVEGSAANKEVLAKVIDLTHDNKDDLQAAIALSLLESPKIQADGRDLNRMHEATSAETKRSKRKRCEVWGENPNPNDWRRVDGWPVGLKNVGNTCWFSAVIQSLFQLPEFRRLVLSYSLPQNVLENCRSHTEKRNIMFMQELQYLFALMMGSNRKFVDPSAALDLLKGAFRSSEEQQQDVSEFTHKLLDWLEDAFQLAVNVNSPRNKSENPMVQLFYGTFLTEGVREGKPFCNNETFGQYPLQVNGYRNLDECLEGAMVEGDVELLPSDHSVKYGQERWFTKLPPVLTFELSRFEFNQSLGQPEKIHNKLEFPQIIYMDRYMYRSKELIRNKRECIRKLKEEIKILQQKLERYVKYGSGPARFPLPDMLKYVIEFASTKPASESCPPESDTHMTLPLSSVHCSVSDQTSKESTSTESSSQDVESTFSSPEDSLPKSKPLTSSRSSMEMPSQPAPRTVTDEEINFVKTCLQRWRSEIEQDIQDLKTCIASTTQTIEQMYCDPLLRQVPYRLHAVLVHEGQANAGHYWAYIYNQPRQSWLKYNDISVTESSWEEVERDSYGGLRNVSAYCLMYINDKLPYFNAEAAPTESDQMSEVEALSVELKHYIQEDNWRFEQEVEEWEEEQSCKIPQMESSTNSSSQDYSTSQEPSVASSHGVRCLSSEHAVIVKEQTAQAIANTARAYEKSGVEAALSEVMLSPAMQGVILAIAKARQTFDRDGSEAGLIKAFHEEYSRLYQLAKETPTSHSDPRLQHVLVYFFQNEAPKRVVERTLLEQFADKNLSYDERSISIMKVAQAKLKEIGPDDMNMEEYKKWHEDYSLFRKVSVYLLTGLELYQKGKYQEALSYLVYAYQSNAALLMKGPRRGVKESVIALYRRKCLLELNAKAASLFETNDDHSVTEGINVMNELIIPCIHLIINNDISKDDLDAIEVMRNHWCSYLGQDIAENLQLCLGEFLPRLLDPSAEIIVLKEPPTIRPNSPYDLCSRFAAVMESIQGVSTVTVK
As to the kind of experiment: Biochemical Assay. Here is the method:
USP28: The assay was performed in a final volume of 20 uL in assay buffer containing 20 mM Tris-HCl (pH 8.0, (1M Tris-HCl, pH 8.0 solution; Corning 46-031-CM)), 2 mM CaCl2 (1M Calcium Chloride solution; Sigma #21114) 2 mM BME (2-Mercaptoethanol; Sigma 63689-25ML -F), 0.01% Prionex (0.22 uM filtered, Sigma #G-0411), and 0.01% Triton X-100. Stock compound solutions were stored at […] as 10 mM in DMSO. Up to 1 month prior to the assay, 2 mM test compounds were pre-dispensed into assay plates (Black, low volume; Corning #3820) and […] Prestamped assay plates were allowed to come to room temperature on the day of the assay. For the screen, 100 nL of 2 mM was pre-dispensed for a final screening concentration of 10 uM (DMSO(fc)=0.5%). […] Plates were incubated stacked for 90 minutes at room temperature before fluorescence was read on the Envision (Excitation at 485 nm and Emission at 535 nm; Perkin Elmer) or on the PheraSTAR (Excitation at 485 nm and Emission at 535 nm; BMG Labtech).

In the case of `Nc1c(C(=O)NCCc2ccc([C@H]3CCNC3)cc2)sc2ncccc12` [US10913753, Compound I-180], the figures for the IC50 result in test [1] and in test [2] were “in the range around 1.1 µM” and less than 0.2 µM, respectively.

With `Nc1c(C(=O)NCCc2ccc(C3CCNC3)cc2)sc2ncccc12` (stereo unspecified) [US10913753, Compound I-181], the IC50 (usually the midpoint of a concentration-inhibition curve) was “in the range around 1.1 µM” in test [1] and less than 0.2 µM in test [2].

In the case of `CN[C@H]1CN(c2nc(F)c(CCNC(=O)c3sc4nc(C)ccc4c3N)cc2F)CC1C` (stereo partly specified) [US10913753, Compound I-214], the IC50 result was “in the range around 6 µM” in test [1] and “in the range around 1.1 µM” in test [2].
